{
  "source": "patent US11564912B2",
  "about": "“Methods for treating irritable bowel syndrome (IBS)” (Salix Pharmaceuticals, Inc., priority 2008, dated 2023)",
  "key": {"subjects with IBS": {"tested_on": "subjects with IBS", "experiment": "Study 1 of rifaximin 550 mg TID for 14 days, analysis after 3 months", "assay_type": "in vivo, human", "text": "A measure of efficacy is based on subjects' answers to the Weekly Subject Global Assessment (SGA) questions over the study duration in relation to their IBS symptoms."}, "[1]": {"details": "as previously disclosed by Applicants; cited from earlier work"}, "[2]": {"details": "at least 2 out of 4 weeks adequate relief during weeks 3 through 6 (weekly question)"}},
  "data": [
    {"substance": "(2S,16Z,18E,20S,21S,22R, 23R,24R,25S,26S,27S,28E)-5,6,21,23,25 Pentahydroxy-27-methoxy -2,4,11,16,20,22,24,26-octamethyl-2,7-(epoxypentadeca-(1,11,13)trienimino)benzofuro (4,5-e) pyrido(1,2,-a) benzimidazole-1,15(2H)-dione,25-acetate [Rifaximin]", "values": [
      {"measurement": "Daily abdominal pain <2, responders", "setting": "subjects with IBS; <2 for at least 50% of days in a week for at least 2 weeks during PEP", "result": 40, "unit": "%"},
      {"measurement": "Global IBS symptoms, responders", "setting": "subjects with IBS; [2]", "result": 41, "unit": "%"},
      {"measurement": "IBS symptom of Bloating, responders", "setting": "subjects with IBS; [2]", "result": 40, "unit": "%"},
      {"measurement": "Abdominal Pain reduction of 2 point in mean, responders", "setting": "subjects with IBS; at least 2 weeks during PEP", "result": 26, "unit": "%"},
      {"measurement": "Abdominal Pain reduction of 2 point in median, responders", "setting": "subjects with IBS; at least 2 weeks during PEP", "result": 37, "unit": "%"},
      {"measurement": "Abdominal Pain reduction of 3 point in mean, responders", "setting": "subjects with IBS; at least 2 weeks during PEP", "result": 6, "unit": "% vs 7%"},
      {"measurement": "Abdominal Pain reduction of 3 point in median, responders", "setting": "subjects with IBS; at least 2 weeks during PEP", "result": 22, "unit": "%"},
      {"measurement": "Overall reduction of mean weekly abdominal pain by >=25%, responders", "setting": "subjects with IBS; at least 2 weeks during PEP", "result": 56, "unit": "%"},
      {"measurement": "Overall reduction of mean weekly abdominal pain by >=50%, responders", "setting": "subjects with IBS; at least 2 weeks during PEP", "result": 36, "unit": "%"},
      {"measurement": "Overall reduction of mean weekly abdominal pain by >=75%, responders", "setting": "subjects with IBS; at least 2 weeks during PEP", "result": 14, "unit": "%"},
      {"measurement": "Overall reduction of median weekly abdominal pain by >=25%, responders", "setting": "subjects with IBS; at least 2 weeks during PEP", "result": 63, "unit": "%"},
      {"measurement": "Overall reduction of median weekly abdominal pain by >=50%, responders", "setting": "subjects with IBS; at least 2 weeks during PEP", "result": 44, "unit": "%"},
      {"measurement": "Overall reduction of median weekly abdominal pain by >=75%, responders", "setting": "subjects with IBS; at least 2 weeks during PEP", "result": 23, "unit": "%"},
      {"measurement": "Abdominal pain reduction of 1 point in mean, responders", "setting": "subjects with IBS; weekly mean vs baseline for at least 2 weeks during PEP", "result": 52, "unit": "%"},
      {"measurement": "Abdominal pain reduction of 1 point in median, responders", "setting": "subjects with IBS; weekly median vs baseline for at least 2 weeks during PEP", "result": 63, "unit": "%"},
      {"measurement": "Rifaximin exposure in healthy subjects compared with subjects having hepatic encephalopathy", "setting": "[1]", "result": "significantly lower"}
    ]}
  ]
}
